# What was measured:
# DPP4 = assay: IL-13 treatment of ALI differentiated bronchial epithelial cells, DPP4 expression; type: cell-based; conditions: IL-13 10 ng/ml, 24 hours
# Protocol: FIGS. 12A and 12B show pairs of Air-liquid interface (ALI) differentiated bronchial epithelial cells (BEC) from 5 donors that were treated for 24 hours with IL-13 cytokine (10 ng/ml) and vehicle control. (FIG. 12A) RNA was extracted from all control and IL-13 treated ALI membranes. RNA was used in 5′ nuclease qPCR assays to determine DPP4 and housekeeping gene expression. Normalized DPP4 expression for the control and IL-13 treated cultures of a subject are connected by a line. Well-differential nasal airway epithelial cultures were generated and tested for a single donor denoted by red points. (FIG. 12B) Western blot of cell lysates for DPP4 in control and IL-13 treated BECs from all five donors.
# HRV-16 = HRV-16 infection of ALI differentiated airway epithelial cells treated with IL-13; type: cell-based, human rhinovirus-16; conditions: IL-13 10 ng/ml for final 10 days of differentiation, BECs and NECs, vs vehicle
substance,measurement,setting,value
IL-13: Th2 cytokine used to treat airway epithelial cell cultures (10 ng/ml),DPP4 gene expression in airway epithelial cells,"DPP4; ALI differentiated BEC from 5 donors, qPCR, vs vehicle control",strongly induced
same,DPP4 protein expression in airway epithelial cells,"DPP4; BEC cell lysates from five donors, Western blot, vs control",strongly induced
same,HRV-16 infection (mRNA) of ALI differentiated airway epithelial cells,HRV-16,decreases HRV-16 infection

# Source: patent US20250122567A1, “Methods of Identifying and Treating Subjects having Inflammatory Subphenotypes of Asthma” (National Jewish Health, priority 2015, published 2025)
